Among the data in paper PMC12390925, “Metabolomics analysis of SNAT2-deficient cells: Implications for the discovery of selective small-molecule inhibitors of an amino acid transporter” (The Journal of Biological Chemistry, 2025) are IC50 and Km values, retold here.

Series [1] concerns the target T1, sodium-coupled neutral amino acid transporter 2 (SNAT2/SLC38A2) (Homo sapiens, UniProt Q96QD8).
T1 construct: dox-inducible sgRNA-resistant human SLC38A2 cDNA in Slc38a2-KO mouse HY15549 cells
T1 sequence (Q96QD8 1-506): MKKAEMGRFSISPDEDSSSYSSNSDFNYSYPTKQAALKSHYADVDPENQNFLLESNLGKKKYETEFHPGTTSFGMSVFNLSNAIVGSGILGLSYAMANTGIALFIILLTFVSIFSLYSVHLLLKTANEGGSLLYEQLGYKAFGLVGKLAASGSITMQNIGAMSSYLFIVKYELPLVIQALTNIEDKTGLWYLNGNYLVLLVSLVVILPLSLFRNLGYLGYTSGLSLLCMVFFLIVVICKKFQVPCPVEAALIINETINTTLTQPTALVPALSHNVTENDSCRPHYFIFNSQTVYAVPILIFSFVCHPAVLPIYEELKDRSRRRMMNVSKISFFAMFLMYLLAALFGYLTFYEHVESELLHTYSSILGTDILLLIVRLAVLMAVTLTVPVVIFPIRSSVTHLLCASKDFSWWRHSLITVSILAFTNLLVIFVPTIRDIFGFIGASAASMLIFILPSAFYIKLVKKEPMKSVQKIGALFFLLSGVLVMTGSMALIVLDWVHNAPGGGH
The experiment in a line: inhibition of SNAT2-dependent MeAIB uptake in cells (GC-MS). The class given is cell-based.

For series [2], the target named is T1, sodium-coupled neutral amino acid transporter 2 (SNAT2/SLC38A2). Briefly: GC-MS cell uptake assay, SNAT2-expressing vs SNAT2-KO cells (KM). The class given is cell-based.
Substrate in series [3]: CNC(C)(C)C(=O)O
Briefly: GC-MS cell uptake assay, SNAT1-overexpressing vs empty vector cells (KM). It counts as cell-based, Homo sapiens.

Usually IC50 stands for the concentration that gives 50% inhibition. High values mean lower potency, low ones higher potency. With `C[C@H](N)C(=O)O` [L-alanine], in series [1], the IC50 was determined as 1900 µM.

Usually Km stands for the substrate concentration at which the rate is half of its maximum. On to `CNC(C)(C)C(=O)O` [MeAIB], for which, in series [2], the Michaelis-Menten constant (Km) is approximately 300 µM.

B1: SNAT1 (Homo sapiens) (protein)
chain: MMHFKSGLELTELQNMTVPEDDNISNDSNDFTEVENGQINSKFISDRESRRSLTNSHLEKKKCDEYIPGTTSLGMSVFNLSNAIMGSGILGLAFALANTGILLFLVLLTSVTLLSIYSINLLLICSKETGCMVYEKLGEQVFGTTGKFVIFGATSLQNTGAMLSYLFIVKNELPSAIKFLMGKEETFSAWYVDGRVLVVIVTFGIILPLCLLKNLGYLGYTSGFSLSCMVFFLIVVIYKKFQIPCIVPELNSTISANSTNADTCTPKYVTFNSKTVYALPTIAFAFVCHPSVLPIYSELKDRSQKKMQMVSNISFFAMFVMYFLTAIFGYLTFYDNVQSDLLHKYQSKDDILILTVRLAVIVAVILTVPVLFFTVRSSLFELAKKTKFNLCRHTVVTCILLVVINLLVIFIPSMKDIFGVVGVTSANMLIFILPSSLYLKITDQDGDKGTQRIWAALFLGLGVLFSLVSIPLVIYDWACSSSSDEGH
notes: CMV-driven human SLC38A1 cDNA stably expressed in HY15549 iSNAT2 cells
With B1, the Km in series [3] turned out to be 2900 µM.
